According to PubChem BioAssay AID248 (DTP/NCI, 2004):
“And” between values parts separate entries of the source, which are not always exact repeats. Equal values may be shown once. Toxic doses and inconclusive results are not listed.

System: L1210 leukemia ip in BDF1 mice, survival T/C
Experiment: NCI In Vivo Anticancer Drug Screen. Data for tumor model L1210 Leukemia (intraperitoneal) in B6D2F1 (BDF1) mice
Settings: higher = longer survival
How it was run: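 Tumor was transplanted into mice, which were then dosed with test compound or vehicle alone. Survival was recorded for each group, and the treated figure was expressed relative to the control figure.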

[1] = endpoint: mean survival time, dose: 50.0 mg/kg/injection, schedule: Q01DX001 (ip), vehicle: carboxymethylcellulose (CMC)
[2] = endpoint: mean survival time, dose: 100.0 mg/kg/injection, schedule: Q01DX001 (ip), vehicle: carboxymethylcellulose (CMC)
[3] = endpoint: mean survival time, dose: 200.0 mg/kg/injection, schedule: Q01DX001 (ip), vehicle: carboxymethylcellulose (CMC)
[4] = endpoint: mean survival time, dose: 400.0 mg/kg/injection, schedule: Q01DX001 (ip), vehicle: carboxymethylcellulose (CMC)
[5] = endpoint: mean survival time, dose: 100.0 mg/kg/injection, schedule: Q01DX009 (ip), vehicle: Klucel (hydroxypropylcellulose) (HPC)
[6] = endpoint: mean survival time, dose: 200.0 mg/kg/injection, schedule: Q01DX009 (ip), vehicle: Klucel (hydroxypropylcellulose) (HPC)
[7] = endpoint: mean survival time, dose: 400.0 mg/kg/injection, schedule: Q01DX009 (ip), vehicle: Klucel (hydroxypropylcellulose) (HPC)
[8] = endpoint: mean survival time, dose: 100.0 mg/kg/injection, schedule: Q01DX001 (ip), vehicle: saline
[9] = endpoint: mean survival time, dose: 200.0 mg/kg/injection, schedule: Q01DX001 (ip), vehicle: saline
[10] = endpoint: mean survival time, dose: 400.0 mg/kg/injection, schedule: Q01DX001 (ip), vehicle: saline
[11] = endpoint: mean survival time, dose: 100.0 mg/kg/injection, schedule: Q01DX009 (ip), vehicle: saline with Tween-80
[12] = endpoint: mean survival time, dose: 200.0 mg/kg/injection, schedule: Q01DX009 (ip), vehicle: saline with Tween-80
[13] = endpoint: mean survival time, dose: 100.0 mg/kg/injection, schedule: Q01DX009 (ip), vehicle: saline
[14] = endpoint: mean survival time, dose: 200.0 mg/kg/injection, schedule: Q01DX009 (ip), vehicle: saline

Compound: CC(=O)OC(C)C(C)C(=O)OCC12C3CC4(C)C(=CCC5C6(C)CCC(OC7OC(C(=O)O)C(OC8OC(CO)C(O)C(O)C8O)C(O)C7OC7OCC(O)C(O)C7O)C(C)(CO)C6CCC54C)C1CC(C)(C)C(O3)C2O (stereo not given)
- T/C (endpoint: mean survival time, dose: 5.0 mg/kg/injection, schedule: Q01DX001 (sc), vehicle: steriod suspending solution): 105 % of control
- T/C (endpoint: mean survival time, dose: 50.0 mg/kg/injection, schedule: Q01DX001 (sc), vehicle: steriod suspending solution): 112 % of control

Compound: CCOC(=O)C(C(=O)OCC)N(C(=O)C(Cl)Cl)c1ccccc1
- T/C (endpoint: mean survival time, dose: 100.0 mg/kg/injection, schedule: Q04DX003 (ip), vehicle: other): 97 % of control
- T/C (endpoint: mean survival time, dose: 200.0 mg/kg/injection, schedule: Q04DX003 (ip), vehicle: other): 96 % of control
- T/C (endpoint: mean survival time, dose: 400.0 mg/kg/injection, schedule: Q04DX003 (ip), vehicle: other): 94 % of control

Compound: Cc1cc(C)c(/C=C2\CCNC2=O)c(C)c1
- T/C [1]: 96 % of control
- T/C [2]: 90 % of control
- T/C [3]: 100 % of control
- T/C [4]: 105 % of control

Compound: CCOC(=O)c1ccc(NC(=O)Nc2cccc(C(C)=O)c2)cc1
- T/C [5]: 95 % of control
- T/C [6]: 93 % of control
- T/C [7]: 101 % of control

Compound: CCCCCC(C[N+](C)(C)C)C(=O)/C=C/c1ccc(Cl)cc1 (stereo not given)
- T/C (endpoint: mean survival time, dose: 100.0 mg/kg/injection, schedule: Q04DX003 (ip), vehicle: Klucel (hydroxypropylcellulose) (HPC)): 96 % of control
- T/C (endpoint: mean survival time, dose: 200.0 mg/kg/injection, schedule: Q04DX003 (ip), vehicle: Klucel (hydroxypropylcellulose) (HPC)): 106 % of control

Compound: OCCOCC12c3ccccc3C3C(c4ccccc41)C32 (stereo not given)
- T/C (endpoint: mean survival time, dose: 50.0 mg/kg/injection, schedule: Q04DX002 (ip), vehicle: saline with Tween-80): 90 % of control
- T/C (endpoint: mean survival time, dose: 200.0 mg/kg/injection, schedule: Q04DX002 (ip), vehicle: saline with Tween-80): 96 % of control

Compound: COc1ccc(C(CC(=O)O)c2ccccc2)cc1 (stereo not given)
- T/C [8]: 94 % of control
- T/C [9]: 93 % of control
- T/C [10]: 100 % of control

Compound: Brc1cscc1Cc1ccccc1
- T/C (endpoint: mean survival time, dose: 50.0 mg/kg/injection, schedule: Q01DX009 (ip), vehicle: saline with Tween-80): 95 % of control
- T/C [11]: 95 % of control
- T/C [12]: 95 % of control

Compound: CCN(CC)C(=O)c1ccccc1C(=O)O
- T/C [5]: 94 % of control
- T/C [6]: 92 % of control
- T/C [7]: 92 % of control

Compound: CCCCCCCCCCCCOP(OCCCCCCCCCCCC)OCCCCCCCCCCCC
- T/C [13]: 90 % of control
- T/C [14]: 88 % of control
- T/C (endpoint: mean survival time, dose: 400.0 mg/kg/injection, schedule: Q01DX009 (ip), vehicle: saline): 93 % of control

Compound: CC(O)CSc1ccccc1 (stereo not given)
- T/C [11]: 95 % of control
- T/C [12]: 88 % of control

Compound: O=C[C@@H](CO)O[C@H](C=O)n1cnc2c(=O)[nH]cnc21
- T/C (endpoint: mean survival time, dose: 35.0 mg/kg/injection, schedule: Q01DX009 (ip), vehicle: saline): 116 % of control
- T/C (endpoint: mean survival time, dose: 35.0 mg/kg/injection, schedule: Q01DX009 (ip), vehicle: water): 122 % of control
- T/C (endpoint: mean survival time, dose: 35.0 mg/kg/injection, schedule: Q01DX Z (ip), vehicle: water): 120 % of control
- T/C (endpoint: mean survival time, dose: 70.0 mg/kg/injection, schedule: Q01DX009 (ip), vehicle: saline): 188 % of control
- T/C (endpoint: mean survival time, dose: 70.0 mg/kg/injection, schedule: Q01DX009 (ip), vehicle: water): 155 % of control
- T/C (endpoint: mean survival time, dose: 79.0 mg/kg/injection, schedule: Q01DX009 (oral), vehicle: saline): 93 % of control
- T/C (endpoint: mean survival time, dose: 80.0 mg/kg/injection, schedule: Q01DX009 (ip), vehicle: saline): 167 % of control
- T/C (endpoint: mean survival time, dose: 98.0 mg/kg/injection, schedule: Q01DX006 (ip), vehicle: saline): 219 % of control
- T/C (endpoint: mean survival time, dose: 98.0 mg/kg/injection, schedule: Q ##X009 (ip), vehicle: saline): 227 % of control
- T/C (endpoint: mean survival time, dose: 98.0 mg/kg/injection, schedule: Q## X Z (ip), vehicle: saline): 227 % of control
- T/C (endpoint: mean survival time, dose: 119.0 mg/kg/injection, schedule: Q01DX009 (oral), vehicle: saline): 110 % of control
- T/C (endpoint: mean survival time, dose: 120.0 mg/kg/injection, schedule: Q01DX009 (ip), vehicle: saline): 167 % of control and 188 % of control
- T/C (endpoint: mean survival time, dose: 125.0 mg/kg/injection, schedule: Q01DX009 (ip), vehicle: saline with Tween-80): 161 % of control
- T/C (endpoint: mean survival time, dose: 140.0 mg/kg/injection, schedule: Q01DX006 (ip), vehicle: saline): 205 % of control
- T/C (endpoint: mean survival time, dose: 140.0 mg/kg/injection, schedule: Q01DX009 (ip), vehicle: saline): 176 % of control and 184 % of control
- T/C (endpoint: mean survival time, dose: 140.0 mg/kg/injection, schedule: Q01DX009 (ip), vehicle: water): 250 % of control
- T/C (endpoint: mean survival time, dose: 140.0 mg/kg/injection, schedule: Q01DX Z (ip), vehicle: water): 253 % of control
- T/C (endpoint: mean survival time, dose: 140.0 mg/kg/injection, schedule: Q ##X009 (ip), vehicle: saline): 246 % of control
- T/C (endpoint: mean survival time, dose: 140.0 mg/kg/injection, schedule: Q## X Z (ip), vehicle: saline): 246 % of control
- T/C (endpoint: mean survival time, dose: 150.0 mg/kg/injection, schedule: Q01DX009 (ip), vehicle: saline with Tween-80): 206 % of control
- T/C (endpoint: mean survival time, dose: 175.0 mg/kg/injection, schedule: Q01DX009 (ip), vehicle: saline with Tween-80): 215 % of control
- T/C (endpoint: mean survival time, dose: 178.0 mg/kg/injection, schedule: Q01DX009 (oral), vehicle: saline): 102 % of control
- T/C (endpoint: mean survival time, dose: 180.0 mg/kg/injection, schedule: Q01DX009 (ip), vehicle: saline): 227 % of control and 251 % of control
- T/C [12]: 439 % of control
- T/C (endpoint: mean survival time, dose: 200.0 mg/kg/injection, schedule: Q04DX003 (ip), vehicle: saline with Tween-80): 165 % of control
- T/C (endpoint: mean survival time, dose: 225.0 mg/kg/injection, schedule: Q01DX009 (ip), vehicle: saline with Tween-80): 427 % of control
- T/C (endpoint: mean survival time, dose: 250.0 mg/kg/injection, schedule: Q04DX003 (ip), vehicle: saline with Tween-80): 172 % of control
- T/C (endpoint: mean survival time, dose: 267.0 mg/kg/injection, schedule: Q01DX009 (oral), vehicle: saline): 110 % of control
- T/C (endpoint: mean survival time, dose: 270.0 mg/kg/injection, schedule: Q01DX009 (ip), vehicle: saline): 182 % of control
- T/C (endpoint: mean survival time, dose: 280.0 mg/kg/injection, schedule: Q01DX009 (ip), vehicle: saline): 89 % of control
- T/C (endpoint: mean survival time, dose: 300.0 mg/kg/injection, schedule: Q04DX003 (ip), vehicle: saline with Tween-80): 245 % of control
- T/C (endpoint: mean survival time, dose: 350.0 mg/kg/injection, schedule: Q04DX003 (ip), vehicle: saline with Tween-80): 318 % of control
- T/C (endpoint: mean survival time, dose: 400.0 mg/kg/injection, schedule: Q01DX009 (oral), vehicle: saline): 102 % of control
- T/C (endpoint: mean survival time, dose: 400.0 mg/kg/injection, schedule: Q04DX003 (ip), vehicle: saline with Tween-80): 401 % of control
- T/C (endpoint: mean survival time, dose: 600.0 mg/kg/injection, schedule: Q01DX009 (oral), vehicle: saline): 104 % of control
- T/C (endpoint: median survival time, dose: 108.0 mg/kg/injection, schedule: Q01DX009 (ip), vehicle: water): 166 % of control
- T/C (endpoint: median survival time, dose: 180.0 mg/kg/injection, schedule: Q01DX009 (ip), vehicle: water): 461 % of control

Compound: Cc1ccon1
- T/C [8]: 102 % of control
- T/C [9]: 100 % of control
- T/C [10]: 96 % of control

Compound: CCC(C)(O)C#CC(C)(O)CC (stereo not given)
- T/C [8]: 100 % of control
- T/C [13]: 101 % of control
- T/C (endpoint: mean survival time, dose: 100.0 mg/kg/injection, schedule: Q04DX003 (ip), vehicle: saline): 105 % of control
- T/C [9]: 106 % of control
- T/C [14]: 100 % of control
- T/C (endpoint: mean survival time, dose: 200.0 mg/kg/injection, schedule: Q04DX003 (ip), vehicle: saline): 105 % of control
- T/C [10]: 102 % of control
- T/C (endpoint: mean survival time, dose: 400.0 mg/kg/injection, schedule: Q04DX003 (ip), vehicle: saline): 100 % of control

Compound: O=C(COc1cccc(Cl)c1)Nc1cccc(NC(=O)c2cccc(S(=O)(=O)F)c2)c1
- T/C [2]: 88 % of control
- T/C [3]: 88 % of control
- T/C [4]: 97 % of control

Compound: CC(=O)c1ccc2c(c1)sc1cc(C(C)=O)ccc12
- T/C [1]: 96 % of control
- T/C [2]: 100 % of control
- T/C [3]: 90 % of control
- T/C [4]: 90 % of control
